According to patent US10030027B2, “Soluble guanylate cyclase stimulators” (MERCK SHARP & DOHME CORP., priority 2015, dated 2018):

Tests used:
sGC α1/β1 heterodimer = sGC α1/β1 heterodimer (Homo sapiens (Human), UniProt Q02108+Q02153); assay: Cell-based sGC functional assay (cyclic GMP assay for sGC activator: CASA assay); conditions: CHO-K1/sGC cells; for Emax: CHO-K1, activity expressed as percentage of compound A (standard), read-out: % Activation; for EC50: inflection point, 4P fit, read-out: IP
How it was run: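 CHO-K1 cells stably expressing human sGC α1/β1 were pre-incubated 30 min at 25° C with or without 1 μM DETA-NO, then exposed to compound for 1 hr at 37° C with 0.5 mM IBMX and 2.5% DMSO final. Intracellular cGMP was measured by HTRF, expressed as % of reference sGC-HDA maximum; inflection point and maximum fold induction came from 4-parameter fits.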

[1] = target: human recombinant sGC enzyme (Homo sapiens (Human), UniProt Q02108+Q02153); assay: Size Exclusion Chromatography (SEC) competition binding assay using [3H] Ex-77B as the radioligand; conditions: [3H] Ex-77B radioligand, 24 hours at 37° C.
How it was run: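 Recombinant human sGC binding measured by competition against tritiated Ex-77B radioligand, with non-specific binding defined by 1 μM unlabeled Ex-77B.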

[2] = system: hypoxia-induced pulmonary hypertension rat; assay: Acute efficacy in hypoxia-induced pulmonary hypertension in rat following intratracheal administration; assay type: in vivo
Source text: Acute Efficacy in Hypoxia-Induced Pulmonary Hypertension in Rat Following Intratracheal Administration Charles River Sprague-Dawley (CD) male rats weighing approximately 350 g were implanted with HD-S21 dual pressure telemetry transmitters (Data Sciences International (DSI)) into the pulmonary artery and femoral artery. This transmitter enables simultaneous measurement of both pulmonary and systemic hemodynamic parameters in the same animal. After a 7-10 day post-operative recovery period, animals were subjected to a normobaric hypoxic (10% oxygen) environment using a Higher Peak Mountain Air Generator (MAG-10) connected to a modified rodent cage via a fitted inlet port. Oxygen (at 10%), temperature, humidity, and CO2 were controlled within normal range and animals were maintained on a 12 hour light-dark cycle with ad libitum access to food and water. After two weeks exposure to 10% O2 hypoxic environment, systolic pulmonary arterial pressure readings increased from 25 mmHg to greater than 50 mmHg. Using a 48 hour baseline average, animals with readings between 50-110 mmHg (standard deviation of less than 10 mmHg) and minimal changes in systolic systemic blood pressure were enrolled for study. Animals were utilized for up to 2 studies per week for 4 weeks with a minimum of 2 days washout between doses of test agent. Compound or vehicle was administered intra-tracheally under light isoflurane anesthesia (5% in oxygen; flow rate 2.0 L/min for 3 minutes). Once anesthetized, rats were placed on an angled intubation stand in supine position and the trachea visualized using a small laryngoscope. Animals then received either 0.5 mL/kg of vehicle or 0.5 mL/kg vehicle containing compound intra-tracheally delivered via microsprayer by use of a Penn-Century Microsprayer® needle 3″ (Model IA-1B-GP) attached to a 1 mL high pressure syringe (Penn Century-Model B-SYR-PL1000) (Penn-Century, Philadelphia, Pa.). The Microsprayer® tip was inserted into the trachea up to the point at which the bend in the needle is close to the tip of the snout, which positions the tip of the Microsprayer® in front of the carina (bifurcation of trachea at the bronchi). After dose delivery the animal is placed on its back in the home cage for recovery. Hemodynamic measurements were continuously recorded and readings consolidated to hourly moving averages. Each animal received a vehicle on Day 1 followed by vehicle or test agent on Day 2. Change from vehicle baseline was calculated by subtracting the hourly Day 1 vehicle response from the hourly Day 2 response and treatment group data was expressed as mean±SEM. Decreases of systolic blood pressure (SBP) and systolic pulmonary arterial pressure (PAP) were measured at a particular IT dose (mpk milligrams per kilogram) for the following Example compounds.

[3] = system: Spontaneously hypertensive rats (SHR); assay: Acute efficacy in spontaneously hypertensive rats (SHR); assay type: in vivo, rat
Source text: Acute Efficacy in Spontaneously Hypertensive Rats (SHR)
Spontaneously hypertensive rats (SHR, male, Charles River) were implanted with DSI TA11PA-C40 telemetry device (Data Sciences, Inc., St. Paul, Minn.) under isoflurane or ketamine/metomidine anesthesia. The telemetry unit catheter was inserted into the descending aorta via the femoral artery and the telemetry device was implanted subcutaneously in the left flank area. Animals were allowed to recover from surgery for 14 days before the start of any studies. Blood pressure, heart rate, and activity signals from conscious, freely moving rats were recorded continuously for 30 seconds every 10 minutes. On the day prior to administration of compound, a single oral dose of vehicle (10% transcutol/20% Cremophor/70% water) was administered to all animals to establish baseline control data. The blood pressure lowering efficacy of compound (PO) or vehicle was evaluated following a single oral gavage. Data were collected as hourly averages, and changes in blood pressure were calculated by subtracting control baseline data on an hourly basis. Animals were maintained on normal diet with a 12 hour light-dark cycle.
Maximum peak decreases of systolic blood pressure (SBP) in SHR at a particular P.O. dose (mpk milligrams per kilogram) for the following Example compounds are provided.

| Structure (SMILES) | Emax (sGC α1/β1 heterodimer) [%] | EC50 (sGC α1/β1 heterodimer) [nM] | Ki [1] [nM] | Category: decrease in SBP (at minimum decrease in PAP of ≥15 mmHg) ([2]; Dose IT 0.03 mpk) | Category: decrease in SBP (at minimum decrease in PAP of ≥15 mmHg) ([2]; Dose IT 0.01 mpk) | Category: maximum peak decrease of systolic blood pressure (SBP) in SHR ([3]; Dose P.O. 3 mpk) | Category: maximum peak decrease of systolic blood pressure (SBP) in SHR ([3]; Dose P.O. 1 mpk) | Category: decrease in SBP (at minimum decrease in PAP of ≥15 mmHg) ([2]; Dose IT 0.1 mpk) |
| --- | --- | --- | --- | --- | --- | --- | --- | --- |
| CC1(c2nc(CCC(F)(F)C(=O)O)co2)C(=O)Nc2nc(-c3nn(Cc4ccccc4F)c4cc(Cl)ccc34)nc(N)c21 (stereo not shown) [Example 127A, 4-(2-{4-amino-2-[6-chloro-1-(2-fluorobenzyl)-1H-indazol-3-yl]-5-methyl-6-oxo-6,7-dihydro-5H-pyrrolo[2,3-d]pyrimidin-5-yl}-1,3-oxazol-4-yl)-2,2-difluorobutanoic acid] | 117 | 52 | 0.057 | A (decrease in SBP 0-5 mmHg) |  |  |  |  |
| C[C@@]1(c2nc(CC3(C(=O)O)CC3)cs2)C(=O)Nc2nc(-c3nn(CCC(F)(F)C(F)(F)F)c4ncccc34)nc(N)c21 [Example 81B, (S)-1-[(2-{4-amino-5-methyl-6-oxo-2-[1-(3,3,4,4,4-pentafluorobutyl)-1H-pyrazolo[3,4-b]pyridin-3-yl]-6,7-dihydro-5H-pyrrolo[2,3-d]pyrimidin-5-yl}-1,3-thiazol-4-yl)methyl]cyclopropane carboxylic acid] | 110 | 504 |  | B (decrease in SBP 5-10 mmHg) |  |  |  |  |
| CC(C)(Cc1coc(C2(C)C(=O)Nc3nc(-c4nn(Cc5ccccc5F)c5cc(F)ccc45)nc(N)c32)n1)C(=O)O (stereo not shown) [Example 63A, 3-(2-{4-amino-2-[6-fluoro-1-(2-fluorobenzyl)-1H-indazol-3-yl]-5-methyl-6-oxo-6,7-dihydro-5H-pyrrolo[2,3-d]pyrimidin-5-yl}oxazol-4-yl)-2,2-dimethylpropanoic acid] | 72 | 104 |  |  | A (decrease in SBP 0-5 mmHg) |  |  |  |
| CCCCCCn1nc(-c2nc(N)c3c(n2)NC(=O)[C@@]3(C)c2ccc(CCC(=O)O)cc2)c2ccc(Cl)cc21 [Example 45B, (S)-3-{4-[4-amino-2-(6-chloro-1-hexyl-1H-indazol-3-yl)-5-methyl-6-oxo-6,7-dihydro-5H-pyrrolo[2,3-d]pyrimidin-5-yl]phenyl}propanoic acid] | 95 | 210 | 0.182 |  |  | B (decrease in SBP in SHRs 25-40 mmHg) |  |  |
| CC(C)(Cc1csc([C@]2(C)C(=O)Nc3nc(-c4nn(Cc5ccccc5F)c5ncccc45)nc(N)c32)n1)C(=O)O [Example 90B, (S)-3-(2-{4-amino-2-[1-(2-fluorobenzyl)-1H-pyrazolo[3,4-b]pyridin-3-yl]-5-methyl-6-oxo-6,7-dihydro-5H-pyrrolo[2,3-d]pyrimidin-5-yl}-1,3-thiazol-4-yl)-2,2-dimethylpropanoic acid] | 112 | 129 | 0.063 |  |  |  | B (decrease in SBP in SHRs 25-40 mmHg) |  |
| C[C@@]1(c2nc(CCC(=O)O)cs2)C(=O)Nc2nc(-c3nn(CCC(F)(F)C(F)(F)F)c4ncccc34)nc(N)c21 (single isomer, unassigned) [Example 82B] | 107 | 1370 | 0.223 |  |  | A (decrease in SBP in SHRs 5-25 mmHg) |  |  |
| C[C@@]1(c2nc(C3CC3C(=O)O)cs2)C(=O)Nc2nc(-c3nn(CCC(F)(F)C(F)(F)F)c4ncccc34)nc(N)c21 (stereo partly drawn) [Example 80BA, (5S)-2-(2-{-4-amino-5-methyl-6-oxo-2-[1-(3,3,4,4,4-pentafluorobutyl)-1H-pyrazolo[3,4-b]pyridin-3-yl]-6,7-dihydro-5H-pyrrolo[2,3-d]pyrimidin-5-yl}-1,3-thiazol-4-yl)cyclopropane-carboxylic acid] |  |  |  |  |  |  |  | B (decrease in SBP 5-10 mmHg) |
| CC(C)(Cc1ccc(C2(C)C(=O)Nc3nc(-c4nn(CCC(F)(F)C(F)(F)F)c5cc(Cl)ccc45)nc(N)c32)cc1)C(=O)O (stereo not shown) [Example 33B, 3-(4-{4-amino-2-[6-chloro-1-(3,3,4,4,4-pentafluorobutyl)-1H-indazol-3-yl]-5-methyl-6-oxo-6,7-dihydro-5H-pyrrolo[2,3-d]pyrimidin-5-yl}phenyl)-2,2-dimethylpropanoic acid] | 100 | 804 | 0.594 |  |  | B (decrease in SBP in SHRs 25-40 mmHg) |  |  |
| CC1(c2cccc(CCC(=O)O)c2)C(=O)Nc2nc(-c3nn(Cc4ccccc4F)c4ncccc34)nc(N)c21 (stereo not shown) [Example 22A, 3-(3-{4-amino-2-[1-(2-fluorobenzyl)-1H-pyrazolo[3,4-b]pyridin-3-yl]-5-methyl-6-oxo-6,7-dihydro-5H-pyrrolo[2,3-d]pyrimidin-5-yl}phenyl)propanoic acid] | 91 | 423 | 0.078 |  |  | A (decrease in SBP in SHRs 5-25 mmHg) |  |  |
| CC1(c2nc(CC(=O)O)co2)C(=O)Nc2nc(-c3nn(Cc4ccccc4F)c4cc(Cl)ccc34)nc(N)c21 (stereo not shown) [Example 51B, 2-(2-{4-amino-2-(6-chloro-1-(2-fluorobenzyl)-1H-indazol-3-yl)-5-methyl-6-oxo-6,7-dihydro-5H-pyrrolo[2,3-d]pyrimidin-5-yl}oxazol-4-yl)acetic acid] | 116 | 485 |  |  | A (decrease in SBP 0-5 mmHg) |  |  |  |
| CCCCn1nc(-c2nc(N)c3c(n2)NC(=O)[C@@]3(C)c2ccc(CCC(=O)O)cc2)c2cccnc21 [Example 14B, (S)-3-(4-{4-amino-2-(1-butyl-1H-pyrazolo[3,4-b]pyridin-3-yl)-5-methyl-6-oxo-6,7-dihydro-5H-pyrrolo[2,3-d]pyrimidin-5-yl}phenyl)propanoic acid] | 90 | 525 | 0.21 |  |  | A (decrease in SBP in SHRs 5-25 mmHg) |  |  |
| Cc1cc(C2(C)C(=O)Nc3nc(-c4nn(CCC(F)(F)C(F)(F)F)c5cc(Cl)ccc45)nc(N)c32)ccc1CCC(=O)O (stereo not shown) [Example 121B, 3-(4-{4-Amino-2-[6-chloro-1-(3,3,4,4,4-pentafluorobutyl)-1H-indazol-3-yl]-5-methyl-6-oxo-6,7-dihydro-5H-pyrrolo[2,3-d]pyrimidin-5-yl}-2-methylphenyl)propanoic acid] | 118 | 238 | 0.234 |  |  | A (decrease in SBP in SHRs 5-25 mmHg) |  |  |
| CCCCn1nc(-c2nc(N)c3c(n2)NC(=O)[C@@]3(C)c2ccc(CCC(=O)O)cc2)c2ccc(Cl)cc21 [Example 38B, (S)-3-{4-[4-amino-2-(1-butyl-6-chloro-1H-indazol-3-yl)-5-methyl-6-oxo-6,7-dihydro-5H-pyrrolo[2,3-d]pyrimidin-5-yl]phenyl}propanoic acid] | 98 | 220 | 0.145 |  |  | A (decrease in SBP in SHRs 5-25 mmHg) |  |  |
